Source: patent US10676468B2, “N-(3-heteroarylaryl)-4-arylarylcarboxamides and analogs as hedgehog pathway inhibitors and use thereof” (IMPACT Therapeutics, Inc., priority 2012, dated 2020)
Counter-ions that a name gives are not always drawn.

How the values were obtained:
Format in all cases: cell-based, mouse
[1] = test system: Hedgehog Signaling Pathway; assay: SHH-induced differentiation of C3H10T1/2 cells into osteoblastic cells, intracellular alkaline phosphatase activity; conditions: 10 nM SHH-N, 5 days, alkaline phosphatase activity (OD405), read-out: IC50 values of compounds that inhibit Hh pathway
Summary of the method: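 Hedgehog pathway inhibition was taken as loss of SHH-driven osteoblastic differentiation. Test compound (10 nM–10 μM) plus SHH-N (10 nM) was applied to C3H10T1/2 cells for 5 days, then lysate phosphatase turnover was measured as the 30-min OD405 change at 37 °C. IC50 was fitted from activity versus log dose.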

[2] = test system: Hedgehog Signaling Pathway; assay: SAG-induced differentiation of C3H10T1/2 cells into osteoblastic cells, intracellular alkaline phosphatase activity; conditions: 1 μM SAG, 5 days, alkaline phosphatase activity (OD405), read-out: IC50 values of compounds that inhibit Hh pathway
Summary of the method: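 Mouse C3H10T1/2 cells were induced with SAG and exposed to compound (10 μM to 1 nM) for 5 days at 37 °C. Cells were lysed in 0.2% Triton, and alkaline phosphatase activity was read as OD405 over 30 min at 37 °C in pH 9.8 substrate buffer. IC50 came from a non-linear fit of background-subtracted OD405 against log concentration.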

[3] = test system: Hedgehog Signaling Pathway; assay: Gli-Luc reporter gene cell assay in C3H10T1/2/Gli-Luc cells stimulated with Shh; conditions: 30 nM Shh, luciferase activity (RLU), read-out: IC50 values of compounds that inhibit Hh pathway
Summary of the method: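 IC50 from nonlinear fit of luciferase RLU versus log compound concentration. Stably transfected C3H10T1/2/Gli-Luc cells received a 7-point compound series alongside Shh (30 nM in the added medium) for 24 h at 37 °C in DMEM/10% FBS, then were lysed for luciferase readout.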

[4] = Mus musculus, C3H 10T1/2, 120 h

Cc1cc(-c2ccc(Cl)cc2)ccc1C(=O)Nc1ccc(Cl)c(-c2nc3ccccc3[nH]2)c1 [Example 8, N-(3-(1H-benzo[d]imidazol-2-yl)-4-chlorophenyl)-3-methyl-4′-chlorobiphenyl-4-carboxamide]
IC50 [1, 4]: 3.6 nM
IC50 [2, 4]: 86 nM
IC50 ([3]; Mus musculus, C3H 10T1/2, 24 h): 4.6 nM

Cc1cc(N2C[C@@H](C)N(C)[C@@H](C)C2)ccc1C(=O)Nc1ccc(Cl)c(-c2ncc(C(C)C)[nH]2)c1 [Example 170, N-(3-(5-isopropyl-1H-imidazol-2-yl)-4-chlorophenyl)-2-methyl-4-((3S,5R)-3,4,5-trimethylpiperazin-1-yl)benzamide]
IC50 [1, 4]: 0.22 nM
IC50 [2, 4]: 30 nM
IC50 ([3]; Mus musculus, C3H 10T1/2, 24 h): 0.22 nM

Cc1cc(-c2ccc(C(F)(F)F)cc2)ccc1C(=O)Nc1cnc(C)c(-c2nc3ccccc3[nH]2)c1 [Example 71, N-(5-(1H-benzo[d]imidazol-2-yl)-6-methylpyridin-3-yl)-3-methyl-4′-(trifluoromethyl)biphenyl-4-carboxamide]
IC50 [1, 4]: 3.6 nM
IC50 [2, 4]: 181 nM
IC50 ([3]; Mus musculus, C3H 10T1/2, 24 h): 7.1 nM

Cc1cc(-c2ccc(C(F)(F)F)cc2)ccc1C(=O)Nc1ccc(Cl)c(-c2ncc(-c3ccc(F)cc3)[nH]2)c1 [Example 78, N-(3-(5-(4-fluorophenyl)-1H-imidazol-2-yl)-4-chlorophenyl)-3-methyl-4′-(trifluoromethyl)biphenyl-4-carboxamide]
IC50 [1, 4]: 4.8 nM
IC50 [2, 4]: 166 nM
IC50 ([3]; Mus musculus, C3H 10T1/2, 24 h): 15 nM

C[C@@H]1CN(c2ccc(C(=O)Nc3ccc(Cl)c(-c4ncc(C5CC5)[nH]4)c3)c(Cl)c2)C[C@H](C)N1C [Example 176, N-(3-(5-cyclopropyl-1H-imidazol-2-yl)-4-chlorophenyl)-2-chloro-4-((3S,5R)-3,4,5-trimethylpiperazin-1-yl)benzamide]
IC50 [1, 4]: 3.9 nM
IC50 [2, 4]: 7.2 nM
IC50 ([3]; Mus musculus, C3H 10T1/2, 24 h): 0.97 nM

C[C@@H]1CN(c2ccc(C(=O)Nc3ccc(Cl)c(-c4nc5ccccc5[nH]4)c3)cc2Cl)C[C@H](C)N1C [Example 133, N-(3-(1H-benzo[d]imidazol-2-yl)-4-chlorophenyl)-3-chloro-4-((3S,5R)-3,4,5-trimethylpiperazin-1-yl)benzamide Dihydrochloride]
IC50 ([1]; Dihydrochloride): 6.3 nM
IC50 ([2]; Dihydrochloride): 54 nM
IC50 ([3]; 24 hours, Dihydrochloride): 1.6 nM

C[C@@H]1CN(c2ccc(C(=O)Nc3ccc(Cl)c(-c4nc5ccccc5[nH]4)c3)c(F)c2)C[C@H](C)N1C [Example 95, N-(3-(1H-benzo[d]imidazol-2-yl)-4-chlorophenyl)-2-fluoro-4-((3S,5R)-3,4,5-trimethylpiperazin-1-yl)benzamide]
IC50 [1, 4]: 13 nM
IC50 [2, 4]: 111 nM
IC50 ([3]; Mus musculus, C3H 10T1/2, 24 h): 3.3 nM

C[C@@H]1CN(c2ccc(C(=O)Nc3cnc(Cl)c(-c4nc5ccccc5[nH]4)c3)cn2)C[C@H](C)N1C [Example 86, N-(5-(1H-benzo[d]imidazol-2-yl)-6-chloropyridin-3-yl)-6-((3S,5R)-3,4,5-trimethylpiperazin-1-yl)nicotinamide]
IC50 [1, 4]: 1.7 nM
IC50 [2, 4]: 40 nM
IC50 ([3]; Mus musculus, C3H 10T1/2, 24 h): 0.94 nM

C[C@@H]1CN(c2ccc(C(=O)Nc3ccc(Cl)c(-c4ncc(-c5ccco5)[nH]4)c3)c(C(F)(F)F)c2)C[C@H](C)N1C [Example 146, N-(3-(5-(furan-2-yl)-1H-imidazol-2-yl)-4-chlorophenyl)-2-(trifluoro-methyl)-4-((3S,5R)-3,4,5-trimethylpiperazin-1-yl)benzamide]
IC50 [1, 4]: 0.49 nM
IC50 [2, 4]: 25 nM
IC50 ([3]; Mus musculus, C3H 10T1/2, 24 h): 0.39 nM

Cc1c(C(=O)Nc2ccc(Cl)c(-c3ncc(-c4ccsc4)[nH]3)c2)ccc(N2C[C@@H](C)N(C)[C@@H](C)C2)c1F [Example 141, N-(3-(5-(thiophen-3-yl)-1H-imidazol-2-yl)-4-chlorophenyl)-2-methyl-3-fluoro-4-((3S,5R)-3,4,5-trimethylpiperazin-1-yl)benzamide]
IC50 [1, 4]: 0.24 nM
IC50 [2, 4]: 9.4 nM
IC50 ([3]; Mus musculus, C3H 10T1/2, 24 h): 0.35 nM

Cc1cc(N2C[C@@H](C)N(C)[C@@H](C)C2)ccc1C(=O)Nc1ccc(Cl)c(-c2ncc(-c3ccco3)[nH]2)c1 [Example 145, N-(3-(5-(furan-2-yl)-1H-imidazol-2-yl)-4-chlorophenyl)-2-methyl-4-((3S,5R)-3,4,5-trimethylpiperazin-1-yl)benzamide]
IC50 [1, 4]: 0.93 nM
IC50 [2, 4]: 3.3 nM
IC50 ([3]; Mus musculus, C3H 10T1/2, 24 h): 0.38 nM

C[C@@H]1CN(c2ccc(C(=O)Nc3ccc(Cl)c(-c4nc5ccccc5[nH]4)c3)cn2)C[C@H](C)N1C [Example 104, N-(3-(1H-benzo[d]imidazol-2-yl)-4-chlorophenyl)-6-((3S,5R)-3,4,5-trimethylpiperazin-1-yl)nicotinamide]
IC50 [1, 4]: 0.61 nM
IC50 [2, 4]: 58 nM
IC50 ([3]; Mus musculus, C3H 10T1/2, 24 h): 0.94 nM

Cc1cc(-c2ccc(C(F)(F)F)cc2)ccc1C(=O)Nc1ccc(Cl)c(-c2ncc(-c3cccs3)[nH]2)c1 [Example 68, N-(3-(5-(thiophen-2-yl)-1H-imidazol-2-yl)-4-chlorophenyl)-3-methyl-4′-(trifluoromethyl)biphenyl-4-carboxamide]
IC50 [1, 4]: 4 nM
IC50 [2, 4]: 69 nM
IC50 ([3]; Mus musculus, C3H 10T1/2, 24 h): 9.9 nM

Cc1cc(N2C[C@@H](C)N(C)[C@@H](C)C2)ncc1C(=O)Nc1ccc(Cl)c(-c2nc3ccccc3[nH]2)c1 [Example 107, N-(3-(1H-benzo[d]imidazol-2-yl)-4-chlorophenyl)-4-methyl-6-((3S,5R)-3,4,5-trimethylpiperazin-1-yl)nicotinamide]
IC50 [1, 4]: 2.3 nM
IC50 [2, 4]: 47 nM
IC50 ([3]; Mus musculus, C3H 10T1/2, 24 h): 0.75 nM

C[C@@H]1CN(c2ccc(C(=O)Nc3ccc(Cl)c(-c4ncc(-c5nccs5)[nH]4)c3)c(Cl)c2)C[C@H](C)N1C [Example 153, N-(3-(5-(thiazol-2-yl)-1H-imidazol-2-yl)-4-chlorophenyl)-2-chloro-4-((3S,5R)-3,4,5-trimethylpiperazin-1-yl)benzamide]
IC50 [1, 4]: 34 nM
IC50 [2, 4]: 280 nM
IC50 ([3]; Mus musculus, C3H 10T1/2, 24 h): 8.7 nM

C[C@@H]1CN(c2ccc(C(=O)Nc3ccc(Cl)c(-c4nc5ccccc5s4)c3)c(Cl)c2)C[C@H](C)N1C [Example 207, N-(3-(benzo[d]thiazol-2-yl)-4-chlorophenyl)-2-chloro-4-((3S,5R)-3,4,5-trimethylpiperazin-1-yl)benzamide]
IC50 [1, 4]: 31 nM
IC50 [2, 4]: 158 nM
IC50 ([3]; Mus musculus, C3H 10T1/2, 24 h): 8.5 nM

Cc1cc(-c2ccc(C#N)cc2)ccc1C(=O)Nc1cnc(Cl)c(-c2nc3ccccc3[nH]2)c1 [Example 70, N-(5-(1H-benzo[d]imidazol-2-yl)-6-chloropyridin-3-yl)-3-methyl-4′-cyanobiphenyl-4-carboxamide]
IC50 [1, 4]: 2.8 nM
IC50 [2, 4]: 34 nM
IC50 ([3]; Mus musculus, C3H 10T1/2, 24 h): 1.7 nM

C[C@@H]1CN(c2ccc(C(=O)Nc3cnc(Cl)c(-c4nc5ccc(Cl)cc5[nH]4)c3)c(Cl)c2)C[C@H](C)N1C [Example 130, N-(5-(6-chloro-1H-benzo[d]imidazol-2-yl)-6-chloropyridin-3-yl)-2-chloro-4-((3S,5R)-3,4,5-trimethylpiperazin-1-yl)benzamide]
IC50 [1, 4]: 18 nM
IC50 [2, 4]: 178 nM
IC50 ([3]; Mus musculus, C3H 10T1/2, 24 h): 8.5 nM

Cc1cc(N2C[C@@H](C)N(C)[C@@H](C)C2)ccc1C(=O)Nc1ccc(Cl)c(-c2ncc[nH]2)c1 [Example 166, N-(3-(1H-imidazol-2-yl)-4-chlorophenyl)-2-methyl-4-((3S,5R)-3,4,5-trimethylpiperazin-1-yl)benzamide]
IC50 [1, 4]: 47 nM
IC50 [2, 4]: 347 nM
IC50 ([3]; Mus musculus, C3H 10T1/2, 24 h): 11 nM

C[C@@H]1CN(c2ccc(C(=O)Nc3ccc(Cl)c(-c4ncc(-c5ccc(Cl)s5)[nH]4)c3)cc2Cl)C[C@H](C)N1C [Example 137, N-(3-(5-(5-chlorothiophen-2-yl)-1H-imidazol-2-yl)-4-chlorophenyl)-3-chloro-4-((3S,5R)-3,4,5-trimethylpiperazin-1-yl)benzamide]
IC50 [1, 4]: 15 nM
IC50 [2, 4]: 51 nM
IC50 ([3]; Mus musculus, C3H 10T1/2, 24 h): 2.3 nM

C[C@@H]1CN(c2ccc(C(=O)Nc3ccc(Cl)c(-c4ncc(-c5ccco5)[nH]4)c3)c(Cl)c2)C[C@H](C)N1C [Example 144, N-(3-(5-(furan-2-yl)-1H-imidazol-2-yl)-4-chlorophenyl)-2-chloro-4-((3S,5R)-3,4,5-trimethylpiperazin-1-yl)benzamide]
IC50 [1, 4]: 0.82 nM
IC50 [2, 4]: 17 nM
IC50 ([3]; Mus musculus, C3H 10T1/2, 24 h): 0.15 nM

C[C@@H]1CN(c2ccc(C(=O)Nc3ccc(Cl)c(-c4nc5cccnc5[nH]4)c3)c(Cl)c2)C[C@H](C)N1C [Example 195, N-(3-(3H-imidazo[4,5-b]pyridin-2-yl)-4-chlorophenyl)-2-chloro-4-((3S,5R)-3,4,5-trimethylpiperazin-1-yl)benzamide]
IC50 [1, 4]: 8.1 nM
IC50 [2, 4]: 258 nM
IC50 ([3]; Mus musculus, C3H 10T1/2, 24 h): 8.9 nM

Cc1cc(N2C[C@@H](C)N(C)[C@@H](C)C2)ccc1C(=O)Nc1ccc(Cl)c(-c2ncc(C3CC3)[nH]2)c1 [Example 177, N-(3-(5-cyclopropyl-1H-imidazol-2-yl)-4-chlorophenyl)-2-methyl-4-((3S,5R)-3,4,5-trimethylpiperazin-1-yl)benzamide]
IC50 [1, 4]: 1 nM
IC50 [2, 4]: 23 nM
IC50 ([3]; Mus musculus, C3H 10T1/2, 24 h): 0.67 nM
